Experimental data as given in ChEMBL document CHEMBL1147204, “Synthesis and antimicrobial evaluation of some new thiazole, thiazolidinone and thiazoline derivatives starting from 1-chloro-3,4-dihydronaphthalene-2-carboxaldehyde” (2007).

What was measured:
Format in all cases: functional
[1] = test system: Bacillus subtilis; experiment: Antimicrobial activity against Bacillus subtilis by agar diffusion technique
[2] = test system: Priestia megaterium; experiment: Antimicrobial activity against Bacillus megaterium by agar diffusion technique
[3] = test system: Escherichia coli; experiment: Antimicrobial activity against Escherichia coli by agar diffusion technique
[4] = test system: Aspergillus niger; experiment: Antifungal activity against Aspergillus niger by agar diffusion technique
[5] = test system: Aspergillus oryzae; experiment: Antifungal activity against Aspergillus oryzae by agar diffusion technique
[6] = test system: Bacillus subtilis; experiment: Antimicrobial activity against Bacillus subtilis at 25 ug/mL by agar diffusion technique; settings: read-out: IZ
[7] = test system: Priestia megaterium; experiment: Antimicrobial activity against Bacillus megaterium at 25 ug/mL by agar diffusion technique; settings: read-out: IZ
[8] = test system: Escherichia coli; experiment: Antimicrobial activity against Escherichia coli at 25 ug/mL by agar diffusion technique; settings: read-out: IZ
[9] = test system: Aspergillus niger; experiment: Antifungal activity against Aspergillus niger at 25 ug/mL by agar diffusion technique; settings: read-out: IZ
[10] = test system: Aspergillus oryzae; experiment: Antifungal activity against Aspergillus oryzae at 25 ug/mL by agar diffusion technique; settings: read-out: IZ

| Structure (SMILES) | inhibition zone (IZ) [1] [mm] | inhibition zone (IZ) [2] [mm] | inhibition zone (IZ) [3] [mm] | inhibition zone (IZ) [4] [mm] | inhibition zone (IZ) [5] [mm] | zone of inhibition at 25 µg/mL [6] [mm] | zone of inhibition at 25 µg/mL [7] [mm] | zone of inhibition at 25 µg/mL [8] [mm] | zone of inhibition at 25 µg/mL [9] [mm] | zone of inhibition at 25 µg/mL [10] [mm] |
| --- | --- | --- | --- | --- | --- | --- | --- | --- | --- | --- |
| O=C1CSC(N/N=C/C2=C(Cl)c3ccccc3CC2)=N1 | 35 | 40 | 30 | 66 | 78 | – | – | – | – | – |
| ClC1=C(/C=N/Nc2nc(-c3ccccc3)cs2)CCc2ccccc21 | 65 | 68 | 56 | 77 | 79 | – | – | – | – | – |
| CCOC(=O)C1SC(N/N=C/C2=C(Cl)c3ccccc3CC2)=NC1=O (configuration not stated) | 42 | 35 | – | 69 | 73 | – | – | – | – | – |
| Cc1csc(N/N=C/C2=C(Cl)c3ccccc3CC2)n1 | 55 | 60 | 40 | 72 | 75 | – | – | – | – | – |
| ClC1=C(/C=N/Nc2nc(-c3ccccc3)c(/N=N/c3ccccc3)s2)CCc2ccccc21 | 85 | 79 | 49 | 79 | 82 | – | – | – | – | – |
| COc1ccc(/N=N/c2sc(N/N=C/C3=C(Cl)c4ccccc4CC3)nc2-c2ccccc2)cc1 | 90 | 84 | 55 | 75 | 86 | – | – | – | – | – |
| O=C1/C(=C\c2ccc(Cl)cc2)S/C(=N\N=C\C2=C(Cl)c3ccccc3CC2)N1c1ccccc1 | 42 | 43 | – | 58 | 69 | – | – | – | – | – |
| O=C1N=C(N/N=C/C2=C(Cl)c3ccccc3CC2)S/C1=C/c1ccc(Cl)cc1 | 34 | 34 | 25 | 75 | 74 | – | – | – | – | – |
| COc1ccc(/N=N/c2sc(N/N=C/C3=C(Cl)c4ccccc4CC3)nc2C)cc1 | 87 | 85 | 50 | 80 | 86 | – | – | – | – | – |
| O=c1c2c(ncn1/N=C/C1=C(Cl)c3ccccc3CC1)sc(=S)n2-c1ccccc1 | 95 | 92 | 85 | 78 | 86 | – | – | – | – | – |
| Nc1sc(=S)n(-c2ccccc2)c1C(=O)N/N=C/C1=C(Cl)c2ccccc2CC1 | 89 | 82 | 60 | 64 | 75 | – | – | – | – | – |
| O=C1CS/C(=N\N=C\C2=C(Cl)c3ccccc3CC2)N1c1ccccc1 | 66 | 55 | – | 63 | 71 | – | – | – | – | – |
| Cc1nc(N/N=C/C2=C(Cl)c3ccccc3CC2)sc1/N=N/c1ccccc1 | 81 | 86 | 60 | 84 | 89 | – | – | – | – | – |
| CC1(C)S[C@@H]2[C@H](NC(=O)[C@H](N)c3ccccc3)C(=O)N2[C@H]1C(=O)O [AMPICILLIN] | – | – | – | – | – | 40 | 29 | 26 | 33 | – |
| O=C(N[C@H](CO)[C@H](O)c1ccc([N+](=O)[O-])cc1)C(Cl)Cl [CHLORAMPHENICOL] | – | – | – | – | – | 30 | 55 | 48 | 35 | – |
| OC(Cn1cncn1)(Cn1cncn1)c1ccc(F)cc1F [FLUCONAZOLE] | – | – | – | – | – | – | – | – | 22 | 16 |
